Data: US10598672B2, “Methods and compositions for diagnosing and treating loss and/or distortion of taste or smell” (Cyrano Therapeutics, Inc., priority 2014, dated 2020)

Legend:
hyposmic patients = experiment: Subjective responses in smell, flavor and taste function (1-100 scale) after oral theophylline; type: in vivo, human
Source text: The term “subjective improvement” as used herein and its grammatical equivalents can refer to measurements of improvement in perception for all external odors based upon a scale of 1-100 with 100 indicating complete recovery of normal smell function with responses from 1-100 scaled appropriately. […] Subjective improvement in taste function can also be measured with changes in taste for salt, sweet, sour and bitter tastants measured on the same 1-100 scale with 100 indicating return to normal for each of the four tastants considered and responses <100 scaled consistently less.
Thirty-one of the hyposmic patients were treated with oral theophylline with a dose range of 200-800 mg taken over a period of 2-10 months. These patients were 18 men, aged 12-78 y, 62+5 y, with six with PIHH, 10 with allergic rhinitis, one with congenital smell loss and one post anesthesia and 13 women, aged 12-67 y, 42±6 y, with four with PIHH, one with allergic rhinitis and eight with congenital smell loss. Improvement in smell function consisted of improvement in both subjective responses to oral theophylline and in olfactometry. Subjective improvement in smell function consisted of measurements of improvement in perception for all external odors based upon a scale of 1-100 with 100 indicating complete recovery of normal smell function with responses from 1-100 scaled appropriately. […] Subjective improvement in taste function was also measured with changes in taste for salt, sweet, sour and bitter tastants measured on the same 1-100 scale with 100 indicating return to normal for each of the four tastants considered and responses <100 scaled consistently less. Improvement by olfactometry was indicated by decreased DT or RT (increased sensitivity), increased ME (increased sensitivity) and changes in H consistent with decreased distortions.

[1] = Body weight with calibrated clinical scale; type: in vivo, human; details: 10 patients
Description: (§1) Serum theophylline levels were measured by fluorescence polarization at each treatment condition. Body weight was measured with a calibrated clinical scale during each study condition and reported at the final measurement in each study condition.

[2] = tested on: patients with hyposmia and hypogeusia; experiment: Adverse effects during intranasal theophylline pilot study; type: in vivo, human; details: intranasal drug use, 10 patients, 4 weeks
Source text: We performed an open-label pilot study in patients with hyposmia and hypogeusia under the following 3 conditions: (1) before treatment, (2) after oral theophylline treatment, and (3) after intranasal theophylline treatment. Under each condition, we performed subjective evaluations of taste or smell functions, quantitative measurements of taste (gustometry) and smell (olfactometry), and measurements of serum theophylline level and body weight.
A pilot study of intranasal theophylline treatment was then initiated among these 10 patients. This trial was an investigator initiated phase 1, open-label, single-source, controlled pilot study. Intranasal drug therapy reflected a compassionate trial of a potentially more useful therapeutic method to improve hyposmia (and hypogeusia) than oral theophylline. Before the intranasal trial, risks and benefits were explained and the patients signed an informed consent.
Each patient delivered the theophylline dose in each naris once daily throughout the study. Patients underwent evaluation 1, 2, and 4 weeks during drug use with the same measurements used for the oral study.

[3] = tested on: patients with taste dysfunction; experiment: Subjective taste acuity and flavor perception (0-100 scale); type: in vivo, human; details: for FLAVOR PERCEPTION: DEGREE OF IMPROVEMENT / TASTE ACUITY: DEGREE OF IMPROVEMENT: Mean ± SEM
Description: Subjective statements of acuity loss were quantitated by use of a scale from 0-100 with 100 reflecting total loss of taste function, 0 reflecting no loss and a number between 0-100 reflecting appropriate degree of loss. Mean±SEM of loss degree was measured among all patients and each pathology initiating taste dysfunction.
Subjective statements of taste acuity loss and loss of flavor perception were quantitated by use of a scale from 0-100 with 100 reflecting total loss of taste acuity or flavor perception, 0 reflecting no loss and a number between 0-100 reflecting appropriate degree of loss. […] Mean±SEM of loss degree was measured among all patients and each pathology initiating taste dysfunction.
[…] Saliva Shh and measurements of taste function by use of subjective responses of acuity and flavor perception and in olfactometry was measured at intervals of 2-6 months in these patients.

[4] = Serum theophylline level by fluorescence polarization; type: in vivo, human
Description: as §1

patients with hyposmia = details: previous open-label controlled clinical trial, 312 patients with hyposmia and hypogeusia, oral; cited from earlier work
[5] = 31 patients, oral theophylline, listed as ORAL THEOPHYLLINE
[6] = 31 patients, oral theophylline, listed as oral theophylline
[7] = oral theophylline, scale 1-100, listed as ORAL THEOPHYLLINE
[8] = oral theophylline, scale 1-100, listed as oral theophylline
[9] = MEN, patient number 38, after oral theophylline
[10] = WOMEN, patient number 41, after oral theophylline
[11] = all patients, patient number 79, after oral theophylline

Compound: Cn1c(=O)c2[nH]cnc2n(C)c1=O [theophylline]
- FLAVOR FUNCTION IMPROVED, number of patients (hyposmic patients; 31 patients, oral theophylline): 19
- FLAVOR FUNCTION NOT IMPROVED, % of patients studied (hyposmic patients; 31 patients, oral theophylline): [39] %
- FLAVOR FUNCTION NOT IMPROVED, number of patients (hyposmic patients; 31 patients, oral theophylline): 12
- SMELL FUNCTION NOT IMPROVED, % of patients studied (hyposmic patients; 31 patients, oral theophylline): [39] %
- SMELL FUNCTION NOT IMPROVED, number of patients (hyposmic patients; 31 patients, oral theophylline): 12
- TASTE FUNCTION IMPROVED, number of patients (hyposmic patients; 31 patients, oral theophylline): 20
- TASTE FUNCTION NOT IMPROVED, % of patients studied (hyposmic patients; 31 patients, oral theophylline): [36] %
- TASTE FUNCTION NOT IMPROVED, number of patients (hyposmic patients; 31 patients, oral theophylline): 11
- SMELL FUNCTION IMPROVED, number of patients (hyposmic patients; 31 patients, oral theophylline 200-800 mg for 2-10 months): 19
- SMELL FUNCTION IMPROVED, % of patients studied (hyposmic patients; 31 patients, oral theophylline 200-800 mg for 2-10 months, listed as ORAL THEOPHYLLINE): [61] %
- SMELL FUNCTION IMPROVED, % of patients studied (hyposmic patients; 31 patients, oral theophylline 200-800 mg for 2-10 months, listed as oral theophylline): 61%
- FLAVOR FUNCTION IMPROVED, % of patients studied (hyposmic patients; [5]): [61] %
- TASTE FUNCTION IMPROVED, % of patients studied (hyposmic patients; [5]): [64]^d %
- FLAVOR FUNCTION IMPROVED, % of patients studied (hyposmic patients; [6]): 61%
- TASTE FUNCTION IMPROVED, % of patients studied (hyposmic patients; [6]): 64%
- SMELL FUNCTION IMPROVED, RESPONSE RANGE (hyposmic patients; improved patients (19), scale 1-100): 2-100%
- SMELL FUNCTION IMPROVED, RESPONSE Mean ± SEM (hyposmic patients; improved patients (19), scale 1-100, listed as ORAL THEOPHYLLINE): 34 ± 6%
- SMELL FUNCTION IMPROVED, RESPONSE Mean ± SEM (hyposmic patients; improved patients (19), scale 1-100, listed as oral theophylline): 34±6%
- FLAVOR FUNCTION NOT IMPROVED, RESPONSE Mean ± SEM (hyposmic patients; oral theophylline): 0
- FLAVOR FUNCTION NOT IMPROVED, RESPONSE RANGE (hyposmic patients; oral theophylline): 0%
- SMELL FUNCTION IMPROVED MEN, number of patients (hyposmic patients; oral theophylline): 11
- SMELL FUNCTION NOT IMPROVED, RESPONSE Mean ± SEM (hyposmic patients; oral theophylline): 0
- SMELL FUNCTION NOT IMPROVED, RESPONSE RANGE (hyposmic patients; oral theophylline): 0%
- TASTE FUNCTION NOT IMPROVED, RESPONSE Mean ± SEM (hyposmic patients; oral theophylline): 0
- TASTE FUNCTION NOT IMPROVED, RESPONSE RANGE (hyposmic patients; oral theophylline): 0%
- FLAVOR FUNCTION IMPROVED, RESPONSE Mean ± SEM (hyposmic patients; oral theophylline, scale 1-100): 43 ± 8
- FLAVOR FUNCTION IMPROVED, RESPONSE RANGE (hyposmic patients; oral theophylline, scale 1-100): 1-100%
- SMELL FUNCTION IMPROVED MEN, RESPONSE RANGE (hyposmic patients; oral theophylline, scale 1-100): 3-95%
- SMELL FUNCTION IMPROVED WOMEN, RESPONSE RANGE (hyposmic patients; oral theophylline, scale 1-100): 2-100%
- TASTE FUNCTION IMPROVED, RESPONSE Mean ± SEM (hyposmic patients; oral theophylline, scale 1-100): 47 ± 8
- TASTE FUNCTION IMPROVED, RESPONSE RANGE (hyposmic patients; oral theophylline, scale 1-100): 3-100%
- SMELL FUNCTION IMPROVED MEN, RESPONSE Mean ± SEM (hyposmic patients; [7]): 27 ± 9%
- SMELL FUNCTION IMPROVED WOMEN, RESPONSE Mean ± SEM (hyposmic patients; [7]): 43 ± 17%
- SMELL FUNCTION IMPROVED MEN, RESPONSE Mean ± SEM (hyposmic patients; [8]): 27±9%
- SMELL FUNCTION IMPROVED WOMEN, RESPONSE Mean ± SEM (hyposmic patients; [8]): 43±17%
- SMELL FUNCTION IMPROVED WOMEN, number of patients (hyposmic patients; oral theophylline, listed as ORAL THEOPHYLLINE): 8
- SMELL FUNCTION IMPROVED WOMEN, number of patients (hyposmic patients; oral theophylline, listed as oral theophylline): eight
- weight increase from pretreatment values, mean (SEM) ([1]; after intranasal treatment): 2.5 (0.5) kg
- weight increase from pretreatment values, mean (SEM) ([1]; after oral treatment): 1.5 (0.4) kg
- adverse effects [2]: No adverse effects
- FLAVOR PERCEPTION: I[…] [3, 9]: 22
- FLAVOR PERCEPTION: I[…], figure in parentheses [3, 9]: 58
- TASTE ACUITY: I[…] [3, 9]: 21
- TASTE ACUITY: I[…], figure in parentheses [3, 9]: 55
- FLAVOR PERCEPTION: DEGREE OF IMPROVEMENT [3, 9]: 18 ± 4%
- TASTE ACUITY: DEGREE OF IMPROVEMENT [3, 9]: 20 ± 5%
- FLAVOR PERCEPTION: I[…] [3, 10]: 23
- FLAVOR PERCEPTION: I[…], figure in parentheses [3, 10]: 54
- TASTE ACUITY: I[…] [3, 10]: 24
- TASTE ACUITY: I[…], figure in parentheses [3, 10]: 59
- FLAVOR PERCEPTION: DEGREE OF IMPROVEMENT [3, 10]: 36 ± 6%
- TASTE ACUITY: DEGREE OF IMPROVEMENT [3, 10]: 35 ± 6%
- patients with improvement in both subjective taste acuity and flavor perception ([3]; after oral treatment 200-1000 mg for 2-10 months): about 60%
- FLAVOR PERCEPTION: I[…] [3, 11]: 45
- FLAVOR PERCEPTION: I[…], figure in parentheses [3, 11]: 63
- TASTE ACUITY: I[…] [3, 11]: 45
- TASTE ACUITY: I[…], figure in parentheses [3, 11]: 63
- FLAVOR PERCEPTION: DEGREE OF IMPROVEMENT [3, 11]: 24 ± 4%
- TASTE ACUITY: DEGREE OF IMPROVEMENT [3, 11]: 28 ± 4^+ %
- mean (SEM) serum theophylline level ([4]; during oral treatment, at time of maximum improvement, 10 patients): 6.4 (2.0) mg/L
- concentration at 4 weeks ([4]; human, serum, other: intranasal, 20 μg per naris, during intranasal treatment): 0 ng/mL
- patients in whom hyposmia was successfully corrected (patients with hyposmia): more than 50%
